One may read the IC50 as the midpoint of a concentration-inhibition curve. Usually pKa stands for the pH at which an ionisable group is half protonated.

Consider 4 compounds from PMC10410611, “Rhenium(I) Tricarbonyl Complexes of 1,10-Phenanthroline Derivatives with Unexpectedly High Cytotoxicity” (Inorganic Chemistry, 2023).

Series [1] relates to ctDNA. Description: DNA melting. The series is classed as binding, calf. As to conditions: ctDNA 40 μM, compound 30 μM. How it is done:
The DNA binding ability of complex 6 was confirmed by measuring the DNA melting temperature prior to complex binding. Briefly, 40 μM ctDNA was incubated with 30 μM of the complex at 37 °C for 15 min. Afterward, the absorbance of the solution was measured at 260 nm in each °C increment in temperature within the range from 60–97 °C. A Cary UV 300 (Agilent Technologies) was used to measure all absorbances. The experiment was programmed with a 1 °C/min temperature ramp rate from the temperature range 60–97 °C, and the holding time was 1 min. Finally, the absorbance of each experiment was normalized to 0 and 1 and further compared with the melting temperature of native ctDNA.

Series [2] concerns ctDNA. Set-up: method as in PMID 18467423. The note with it: for ctDNA; cited from earlier work.
Series [3] concerns PC3 cells. As to the kind of experiment: Cytotoxicity, Resazurin assay, normoxic conditions. The format is cell-based, human. As to conditions: for IC50: normoxic conditions (∼15% O2 level), 48 h, Resazurin, read-out: IC50 (μM) ± S.D. PC3. The procedure:
(§1) The standard Resazurin assay was performed to determine the cytotoxicity of the synthesized complexes. […] After 24 h of the initial incubation period, the medium was replenished by a fresh metal complex-containing medium (100 μL/well) and incubated for an additional 48 h. Initially, the metal complex was dissolved in DMSO and the target concentration was achieved by further dilution with the medium. […] Each of the reported IC50 values is the mean of three individual experiments with standard deviation, and each concentration was assayed in sextuplicate in each successive experiment.
For orientation: Resazurin is reduced to fluorescent resorufin, in cell work by metabolically active cells.

Series [4] relates to PC3 cells. As to the kind of experiment: Cytotoxicity, Resazurin assay, hypoxic conditions. The series is classed as cell-based, human. The note with it: for IC50: PC3, hypoxic conditions (2% O2), 48 h, Resazurin, read-out: IC50 (µM) ± S.D. Hypoxia; for Hypoxia resistance factor (ratio of IC50 in hypoxia and normoxia): PC3. The text has this:
Initially, at least three consecutive cell passages were maintained in hypoxic conditions before starting any experiments.

Another series has as its system RPE-1 cells. Description: Cytotoxicity, Resazurin assay, normoxic conditions. As to conditions: normoxic conditions (∼15% O2 level), 48 h, read-out: IC50 (μM) ± S.D. RPE-1. The series is classed as cell-based, human. The procedure: as §1
In series [5] the test system is 3D multicellular PC3 cell spheroids. As to the kind of experiment: Cytotoxicity against 3D cell spheroid, AlamarBlue assay. The series is classed as cell-based, human. The note with it: average diameter 435 μm, 72 h, normoxic, read-out: IC50 against 3D multicellular PC3 cells spheroid. How it is done: 1 × 10^4 PC3 cells were seeded in each well of a Corning 96 Well Ultra-Low Attachment Treated Spheroid Microplate. After 96 h of incubation at 37 °C in normoxic conditions, the average spheroid size observed was 435 μm. Half of the medium was replaced by an equal volume of complex-containing (two times of target concentrations) medium. After 72 h, the cell viability was measured using the AlamarBlue assay. Finally, the IC50 values were determined by using GraphPad Prism 5 software after applying four parameter fitting.

The conditions of series [6]: cited from earlier work.

Bounds are passed on as bounds.

Turning to `CC[n+]1c(-c2ccccc2)c2cc(N)ccc2c2ccc(N)cc21` [EB, ethidium bromide, reference compound], in the series on ctDNA [1], the “shift of ctDNA melting temperature (ΔTm)” value came to 4 ± 0.1 °C. In addition, the “binding constant of EB (KEB)” value with ctDNA [2] is given as 1 × 10^7 M^–1.
For `Nc1n[n+]([O-])c2ccccc2[n+]1[O-]` [Tirapazamine, tirapazamine, reference compound], the IC50 is about 100 µM in the series on PC3 cells [3] (Homo sapiens, PC-3) and 20.4 ± 3 µM in the series with PC3 cells [4] (Homo sapiens, PC-3). Besides, in the series with PC3 cells [3] (PC3, normoxia, maximum tested concentration 100 µM), the “cell killing in comparison to the control” value is “around 50%”. Moreover, the “Hypoxia resistance factor (ratio of IC50 in hypoxia and normoxia)” value in the series with PC3 cells [4] is recorded as 0.2.
Turning to `N.N.[Cl][Pt][Cl]` [cisplatin, reference compound], the 50% inhibitory concentration (IC50) is 36 ± 4 µM in the series with RPE-1 cells, 6.9 ± 0.5 µM in the series on PC3 cells [3], 6.22 µM in series [5] and over 50 µM with PC3 cells [4]. Further, in the series on PC3 cells [3] (normoxic conditions), the “selectivity (ratio between IC50 against RPE-1 and IC50 against PC3 cells)” value amounted to 5. In addition, in the series with PC3 cells [4], the “Hypoxia resistance factor (ratio of IC50 in hypoxia and normoxia)” value is over 7.
Take `O.O=c1cccccc1[O][Re].[C-]#[O+].[C-]#[O+].[C-]#[O+]` [fac-[Re(CO)3(Trop)(H2O)]]: the pKa in series [6] was 8.96 ± 0.02.
